Assay results from patent publication US20230097801A1, “METHODS OF INCREASING CELL PHAGOCYTOSIS” (National Health Research Institutes, priority 2021, published 2023).

How the values were obtained:
[1] = system: human B-cell lymphoma Raji xenograft tumor; assay: Raji xenograft anti-tumor efficacy and survival study (3 weeks treatment); assay type: in vivo, NOD/SCID mice; settings: Compound 34 100 mg/kg p.o. QD*5, rituximab 10 mg/kg i.p. 2QW
Text: (§1) Human B-cell lymphoma Raji cells were used to evaluate the efficacy of Compound 34 and rituximab in treating cancer cells. Prior to injection into animals, the cancer cells were detected as free of Mycoplasma spp. NOD/SCID mice (BioLasco, Taiwan) were used for in vivo experiments due to their higher affinity of SIRPα to human CD47. The mice used in these studies were housed in Institutional Animal Care and Use Committees-approved facility at National Health Research Institutes in accordance with guidelines for the care and use of laboratory animals.
One million Raji cells in culture medium and matrigel (1:1, v/v) were injected subcutaneously into the left flank region of the mice (n=7 to 10 animals per group). Treatments were initiated after randomization with inclusion of tumors at approximately 100 mm^3. A dosing vehicle for Compound 34 was prepared using 10% DMA: 40% PEG400: 50% (1% CMC) (v/v/v) and was dosed orally (p.o.) at 100 mg/kg once a day, 5 days a week (Q.D.*5). Rituximab (Roche-Genentech, South San Francisco, Calif.) stock solution was diluted with PBS and dosed at 10 mg/kg twice a week (2QW) by intraperitoneal (i.p.) injection.
To evaluate anti-tumor efficacy and survival rates, mice were treated with vehicle control, 10 mg/kg rituximab (2QW, i.p.), 100 mg/kg Compound 34 (QD*5), or rituximab in combination with Compound 34. Treatment was discontinued at the end of 3 weeks. The mice were monitored for cancer growth and body weight once a week. Cancer growth was measured by volume with an electronic caliper. The volume was calculated as L×W^2/2, in which L is the length of the tumor and W is its width. Tumor size and animal body weight were measured once a week after cancer cell inoculation. Cancer response at the end of the study was calculated as tumor growth inhibition (TGI) using (1−T/C)*100, in which T is the mean tumor volume (mm^3) of the test group, and C is the mean tumor volume (mm^3) of the vehicle-treated group. […] For the survival study, treatment was discontinued at the end of 3 weeks. Thereafter, mice were followed up for tumor growth and body weight once a week. The mice were then sacrificed when tumor volume reached 2,000 mm^3 or body weight loss was greater than 10%. Kaplan-Meier plots were used as the study end point to calculate percentage of animals remaining in the study in term of the time. The median survival days for vehicle control and Compound 34 were 15.5 days and 18 days, respectively (FIG. 5E). Rituximab prolonged median survival days to 28 days after treatment discontinued (FIGS. 5C and 5E). Importantly, the combination of rituximab and Compound 34 further prolonged median survival days to 47 days (FIGS. 5D and 5E).

[2] = system: human B-cell lymphoma Raji xenograft tumor; assay: Raji xenograft dose-dependent efficacy of Compound 34 with rituximab (6 weeks); assay type: in vivo, NOD/SCID mice; settings: rituximab 10 mg/kg alone
Text: as §1
To evaluate dose-dependent anti-tumor efficacy of Compound 34 in combination with rituximab, mice were treated with vehicle control, rituximab, or rituximab in combination with Compound 34 for 6 weeks. A dosing vehicle for Compound 34 was prepared using 10% DMA: 40% PEG400: 50% (1% CMC) (v/v/v) and was dosed orally (p.o.) at 10 mg/kg, 30 mg/kg, and 100 mg/kg once a day, 5 days a week (Q.D.*5). Rituximab (Roche-Genentech, South San Francisco, Calif.) stock solution was diluted with PBS and dosed at 10 mg/kg twice a week (2QW) by intraperitoneal (i.p.) injection. Cancer growth was measured by volume with an electronic caliper. The volume was calculated as L×W^2/2, in which L is the length of the tumor and W is its width. Tumor size and animal body weight were measured once a week after cancer cell inoculation. Cancer response at the end of the study was calculated as tumor growth inhibition (TGI) using (1−T/C)*100, in which T is the mean tumor volume (mm^3) of the test group, and C is the mean tumor volume (mm^3) of the vehicle-treated group. The treatment response rate were classified into 4 categories: complete regression (CR), in which the tumor was undetectable at the end of study; partial regression (PR), in which the tumor volume was less than or equal to 30% of the initial tumor volume at the end of study; stable disease (SD), in which the tumor volume was between […] of the initial tumor volume at the end of study; progression disease (PD), in which the tumor volume was greater than 50% of the initial tumor volume at the end of study. An overall response rate (ORR) is calculated based on the CR and PR groups. […] When treated with Compound 34 (at 100 mg/kg) in combination with rituximab, 6 out of 10 mice (60%) fell under the CR group, and 1 out of 10 mice (10%) fell under the PR group. On the other hand, no animals had CR (0%) and only 2 out of 10 mice (20%) were PR by rituximab (at 10 mg/kg), resulting in 70% ORR by the combination treatment and 20% by antibody only.

[3] = system: CD47; assay: Flow cytometry, anti-human CD47 CC2C6 antibody binding on Raji cell surface; assay type: cell-based; settings: for IC50: B-cell Lymphoma (Raji cells), 4 days treatment, read-out: IC50, inhibition of CC2C6 binding; for inhibition of binding of anti-human CD47 antibody CC2C6 (in words): Raji cells
Description: (§2) Binding between CD47 and SIRPα was studied by measuring the level of CD47 binding using any suitable method. Flow cytometric analysis is useful to quantify the level of binding of CD47 to antibody CC2C6, which is then subjected to an immune-staining procedure using fluorochrome-conjugated secondary antibody followed by analysis of the immune-staining signal with a flow cytometry instrument to obtain the level of the CD47-CC2C6 binding. In another method, analysis of CD47 is performed using SIRPα-Fc formed from SIRPα fused with human IgG1, which is then subjected to an immune-staining procedure using fluorochrome-conjugated secondary antibody against human IgG1, followed by analysis of the immune-staining signal. SIRPα is expressed on the surface of a myeloid cell such as macrophage, monocyte, neutrophil, or dendritic cell. Alternatively, SIRPα is fused with human IgG1 to form a SIRPα-Fc recombinant protein. […] An anti-cancer agent (e.g., rituximab) can be used together with a compound of formula (I). Useful anti-cancer agents are described above including anti-PD-L1 antibodies, anti-CD20 antibodies, anti-HER2 antibodies, anti-EGFR antibodies, and anti-CD47 antibodies. Other suitable anti-cancer agents are chemotherapeutic agents such as doxorubicin, epirubicin, idarubicin, methotrexate, mitoxantrone, oxaliplatin, and cyclophosphamide.
Human B-cell lymphoma Raji cells were purchased from BCRC, Taiwan. Raji cells were maintained at 37° C. under 5% CO2 in RPMI-1640 medium (Hyclone, Marlborough, Mass.) supplemented with 10% fetal bovine serum (FBS) (SAFC, Sigma-Aldrich, St. Louis, Mo.) containing 2 mM L-glutamine (Hyclone, Marlborough, Mass.), 10 mM HEPES (Hyclone, Marlborough, Mass.) and 1 mM sodium pyruvate (Hyclone, Marlborough, Mass.).
(§3) Antibody conjugates and extracellular domain of SIRPα used to analyze cell surface CD47 binding include anti-human CD47 CC2C6, 2D3, recombinant human SIRPα/CD172a Fc chimer protein, and anti-human IgG Fc. To determine inhibition of CD47 binding, cancer cells were treated with compounds of formula (I) at various concentrations for 4 days. Thereafter, the cells were washed with PBS containing 0.5% BSA (FACS buffer) followed by incubation with fluorochrome-labeled antibodies to human CD47 (i.e., CC2C6 and 2D3) at 1:50 dilution in FACS buffer for 30 minutes at 4° C. Compounds of formula (I) produced a dose-dependent inhibition of anti-CD47 CC2C6 antibody that recognized CD47 and SIRPα binding site on the tumor cell surface including B-cell lymphoma Raji cells, colon cancer cells DLD-1, and ovarian cancer SK-OV-3 cells (see FIGS. 1A, 1B, and 1C, respectively).

[4] = system: CD47; assay: Flow cytometry, anti-human CD47 CC2C6 antibody binding on DLD-1 cell surface; assay type: cell-based; settings: for IC50: Colon Cancer (DLD-1 cells), 4 days treatment, read-out: IC50, inhibition of CC2C6 binding; for inhibition of binding of anti-human CD47 antibody CC2C6 (in words): DLD-1 cells
Description: as §2
Human colon cancer DLD-1 cells were obtained from NHRI IBPR HTS Lab, Taiwan. DLD-1 cells were maintained under the same conditions described immediately above.
as §3

[5] = system: CD47; assay: Flow cytometry, anti-human CD47 CC2C6 antibody binding on SK-OV-3 cell surface; assay type: cell-based; settings: for inhibition of binding of anti-human CD47 antibody CC2C6 (in words): SK-OV-3 cells; for IC50: Ovarian Cancer (SK-OV3 cells), 4 days treatment, read-out: IC50, inhibition of CC2C6 binding
Description: as §2
SK-OV-3 cells were purchased from ATCC (Manassas, Va.). SK-OV-3 cells were maintained at 37° C. under 5% CO2 in McCoy's 5a medium (Gibco, ThermoFisher, Waltham, Mass.) with 10% fetal bovine serum (FBS) (Sigma-Aldrich, St Louis, Mo.), and 2 mM L-glutamine.
as §3

[6] = system: CD47; assay: Flow cytometry, anti-human CD47 2D3 control antibody binding on Raji cell surface; assay type: cell-based; settings: Raji cells
Description: as §3

[7] = Mouse pk profiles; assay type: in vivo; settings: for clearance / Cmax / bioavailability / half-life: plasma; for bioavailability: PO (30 mg/kg) vs IV (2 mg/kg); for half-life: read-out: T1/2 (h) Plasma (converted)

Rituximab: an anti-human CD20 antibody (Roche-Genentech)
tumor growth inhibition (TGI, % of control) ([1]; 3 weeks): 78.5%
median survival days ([1]; treatment discontinued at 3 weeks): 28 days
CR (complete regression), rate [2]: 0 (0%)
ORR (overall response rate, CR and PR), rate [2]: 20%
PD (progression disease), rate [2]: 80%
PR (partial regression), rate [2]: 20%
CR (complete regression), number of mice ([2]; of 10 mice): 0 (0%)
ORR (overall response rate, CR and PR), number of mice ([2]; of 10 mice): 2
PD (progression disease), number of mice ([2]; of 10 mice): 8
PR (partial regression), number of mice ([2]; of 10 mice): 2
CR (complete regression), rate ([2]; listed as rituximab): 0%

O=C1NC[C@H](c2ccc(-c3cnc(C(F)(F)F)s3)cc2)N1c1ccc2[nH]cnc2c1 [Compound 30]
IC50 [3]: 0.84 µM
inhibition of binding of anti-human CD47 antibody CC2C6 (in words) [3]: effectively inhibited
IC50 [4]: 1.01 µM
inhibition of binding of anti-human CD47 antibody CC2C6 (in words) [4]: effectively inhibited
inhibition of binding of anti-human CD47 antibody CC2C6 (in words) [5]: effectively inhibited
inhibition of binding of anti-human CD47 antibody 2D3 (in words) [6]: did not inhibit
AUC Plasma ([7]; IV (2 mg/kg)): 3037 ng·h/g
AUC Plasma ([7]; PO (30 mg/kg)): 21170 ng·h/g
clearance ([7]; IV (2 mg/kg)): 0.762 L/h/kg
Cmax ([7]; PO (30 mg/kg)): 1.78 µg/mL
bioavailability [7]: 47%
half-life ([7]; PO (30 mg/kg)): 5.2 h

O=C1NC[C@H](c2ccc(-c3csc(C(F)(F)F)c3)cc2)N1c1ccc2[nH]cnc2c1 [Compound 32]
IC50 [3]: 1.38 µM
inhibition of binding of anti-human CD47 antibody CC2C6 (in words) [3]: effectively inhibited
IC50 [4]: 0.79 µM
inhibition of binding of anti-human CD47 antibody CC2C6 (in words) [4]: effectively inhibited
IC50 [5]: 0.2 µM
inhibition of binding of anti-human CD47 antibody CC2C6 (in words) [5]: effectively inhibited
inhibition of binding of anti-human CD47 antibody 2D3 (in words) [6]: did not inhibit
AUC Plasma ([7]; IV (2 mg/kg)): 8185 ng·h/g
AUC Plasma ([7]; PO (30 mg/kg)): 68659 ng·h/g
clearance ([7]; IV (2 mg/kg)): 0.24 L/h/kg
Cmax ([7]; PO (30 mg/kg)): 3.72 µg/mL
bioavailability [7]: 56%
half-life ([7]; PO (30 mg/kg)): 12.7 h

CCCOc1ccc([C@H]2CNC(=O)N2c2ccc3[nH]cnc3c2)cc1 [PQ912, reference compound]
IC50 [3]: 5.95 µM
IC50 [4]: 3.19 µM
IC50 [5]: 0.15 µM
AUC Plasma ([7]; IV (2 mg/kg)): 520 ng·h/g
AUC Plasma ([7]; PO (30 mg/kg)): 6359 ng·h/g
clearance ([7]; IV (2 mg/kg)): 3.84 L/h/kg
Cmax ([7]; PO (30 mg/kg)): 2.02 µg/mL
bioavailability [7]: 82%
half-life ([7]; PO (30 mg/kg)): 2.8 h
